In ChEMBL document CHEMBL3102853, “Carbonic anhydrase inhibitors. Synthesis, and molecular structure of novel series N-substituted N'-(2-arylmethylthio-4-chloro-5-methylbenzenesulfonyl)guanidines and their inhibition of human cytosolic isozymes I and II and the transmembrane tumor-associated isozymes IX and XII” (Eur J Med Chem, 2014):

Biological target: Carbonic anhydrase 9 (Homo sapiens, UniProt Q16790)

Row | Compound | Ki
1 | Cc1cc(S(=O)(=O)NC(=N)NNc2ccc(S(N)(=O)=O)cc2)c(SCc2cccc(C(F)(F)F)c2)cc1Cl | 21 nM
2 | Cc1cc(S(=O)(=O)NC(=N)NCc2ccc(S(N)(=O)=O)cc2)c(SCc2cccc(C(F)(F)F)c2)cc1Cl | 17 nM
